Reference: patent US12116421B2, “Peptide-based Dopa containing adhesive gels” (KING ABDULLAH UNIVERSITY OF SCIENCE AND TECHNOLOGY, priority 2020, dated 2024)
Where a SMILES comes first, the peptide text is derived from it. [ ]: non-standard residue; d: D form. Dopa = N[C@@H](Cc1ccc(O)c(O)c1)C(=O)O; Cha = N[C@@H](CC1CCCCC1)C(=O)O

Key:
[1] = system: mouse myoblast cells (C2C12); experiment: Cytocompatibility of peptide nanogels, 3D culture, MTT and live/dead staining; type: cell-based; details: various concentrations up to the solubility limit of the peptides
[2] = system: mouse myoblast cells (C2C12); experiment: as above; type: cell-based; details: for effect on cell growth: C2C12, nanogel 3 mg/mL, compared to 2D culture; for biocompatibility with C2C12 cells: hydrogel scaffold, live/dead staining versus 2D culture
Protocol: In one embodiment, cytocompatibility of the peptide nanogels was evaluated using mouse myoblast cells (C2C12). After 24 hours of incubation, cell proliferation was tested with DoIIZK, IIZDoK, IIZKDo, IIZ(KDo)2 and IIZ(KDo)3 at a concentration of 3 mg/mL to evaluate biocompatibility. The MTT (3-(4,5-dimethylthiazol-2-yl)-2,5-diphenyltetrazolium bromide) assay was used in order to quantify the number of viable cells. In one embodiment, a standard curve for a known number of cells was also plotted. In one embodiment, the test results were compared to the positive control 2D culture. A positive indication of cytocompatibility would be the survival of the cells following incubation with the peptides. For comparison, peptides DoIIZK, IIZDoK, IIZKDo, IIZ(KDo)2 and IIZ(KDo)3 were tested as part of the study. The cytocompatibilty of all peptides tested was evaluated by quantifying the survival cells by visualising the live/dead cells using calcein AM and Ethidium bromide staining.
Poli-D Lysine (PDL) was used for 2D control. The scalebar in FIG. 35 is 200 μm. Cytocompatibility of all peptides was evaluated by quantifying the survival cells by visualising the live/dead cells using calcein AM and Ethidium homodimer staining. The live cells are stained green by calcein AM, while the dead cells are stained red by Ethidium homodimer.
For mouse myoblast cells (C2C12) culture expansion, C2C12 cells were cultured either in a T175 or T75 culture flask in complete DMEM media (10% FBS and 1% P/S). The cells were placed in a humidified incubator at 37° C., with 95% air and 5% CO2. Then they were subcultured using trypsin at approximately 80% confluence. Fresh culture media was added every 48 h to each well, after removing the previous media.
For 3D culture of mouse myoblast cells in peptide hydrogels and cell viability assay, C2C12 cells were encapsulated in peptide hydrogels in a 96-well plate.^61 Briefly, peptide solutions DopaIIZK, IIZDopaK, IIZKDopa (3 mg/mL) were added to 40 μL/well. Mouse myoblast cells (30,000 cells/well) that were re-suspended in 2×PBS were then, mixed gently with the peptide solutions. The gelation time was 1-3 min for all 5 peptides. Subsequently, the culture medium was added to the wells.
The viability of 3D cultured cells was assessed using the LIVE/DEAD Viability/Cytotoxicity Kit (ThermoFisher®, USA)^11. Calcein acetoxymethyl ester (Calcein-AM) is used to detect viable cells and ethidium homodimer-I (EthD-I) is used to detect dead cells. Briefly, staining with 2 μM of Calcein-AM and 4 μM of EthD-1 is performed after washing with Dulbecco's phosphate-buffered saline (D-PBS). After 30 minutes incubation, the staining solution was discarded, and 1×D-PBS was added to each well before imaging. Stained cells were imaged with an inverted confocal microscope (Zeiss® LSM 710 Inverted Confocal Microscope, Germany) or ZEISS® fluorescent microscope.

[3] = AFM force spectroscopy adhesion measurement in liquid; type: physicochemical
Protocol: In one embodiment, the peptides were dissolved in the proper solution at a concentration of 10 mg/mL. The peptide solutions were spotted on a freshly cleaved mica sheet and the measurement was performed in liquid.
In one embodiment, the adhesion properties of the Dopa peptides are influenced by the construct lysine-Dopa and by the position of the catechol moiety in the peptide sequence, as indicated by the AFM force spectroscopy results in liquid. In a typical force spectroscopy curve the probe is several times approached to the surface and retracted and for every cycle of retraction the maximum force of adhesion is recorded. The incorporation of a catechol moiety near a lysine would enhance adhesion to negatively charged surfaces. FIG. 28 illustrates the effect of lysine on adhesion to negatively charged surfaces. Therefore, probes and substrates that were manifesting negative charges on their surfaces, such as the silicon probe and the freshly cleaved mica substrate, are used in the AFM spectroscopy. The setup of probe and substrate is illustrated in FIG. 29.
The peptides dissolved in the proper solution at 13 mM concentration each, were spotted on a freshly cleaved mica sheet and the measurement was performed in liquid. Several force curves were recorded for different buffers. […] In FIG. 30, the inset image represents the maximum extension of each peptide dissolved in water, when manually pulled between two glass slides. Also in FIG. 30, the approach part of the curve contains the important information defined as “jump to contact”, while the retract part of the F-D curve contains the adhesion force value. […] Two controls were also introduced: namely the original peptide IIZK, and an alternative peptide IIFK. To better understand the influence of Dopa on the adhesion properties of the peptide, the original short peptide IIZK would make a perfect negative control. We also introduced as a control the IIFK peptide in order to understand the effect of IIZK itself on adhesion. In FIG. 32, statistical significance expressed as p<0.01.
AFM topography measurements were performed on a Dimension Icon SPM (Bruker®). The samples were prepared as follows: peptides were dissolved at 13 mM concentration in MilliQ® water; after 30 minutes, 20 μl of these solutions were dropped on freshly cleaved mica sheets and immediately dried with an N2 stream. Measurements were immediately performed in tapping mode in air by the use of an AFM probe AC_240TS_R3 (Olympus®) with nominal free oscillation at roughly 70 kHz and a nominal spring constant of 2 N/m. The probe was calibrated by contact-free method.^54 Free oscillation amplitude was set at 200 mV with a 5% damping during tapping mode measurement. AFM adhesion measurements were performed on a JPK Nanowizard™ III mounted on Olympus® IX-81 inverted optical microscope. A mica sheet was glued one day before the experiment with double component epoxy glue to a glass slide and enclosed in a plastic o-ring provided by the JPK company for liquid measurements. Each peptide was dissolved in MilliQ® water at a concentration of 13 mM and mixed gently. Starting with the measurement in MilliQ® water, 50 μL of the solution were dropped on the freshly cleaved mica sheet within 5 minutes from the preparation of the solution and let equilibrate for 10 minutes. After, the excess solution was removed by pipetting and discarded. Then 1 mL of MilliQ® water was added gently from the side and after 5 minutes, the sample was rinsed 3 times by additional 1 mL MilliQ® water. Finally, the sample was measured by AFM force spectroscopy (Quantitative imaging mode) with additional 1 mL MilliQ® water. The MilliQ® water was exchanged after the measurement alternatively with a water solution containing 137 mM NaCl or 10 mM Phosphate ions (a combination of Na2HPO4·7H2O and NaH2PO4·H2O to reach pH 7.4). After performing the force spectroscopy map in these two different solutions, eventually, the liquid was exchanged with 1×PBS pH 7.4. […]

| increase of adhesion force by addition of NaCl ([3]; NaCl versus MilliQ water) [%] | Molecule | cell viability / toxicity [1] | effect on cell growth [2] | biocompatibility with C2C12 cells [2] | Force of adhesion (Geometric Mean) ([3]; 10 mM PO4, peptide 13 mM) [PN] | Force of adhesion (Geometric Mean) ([3]; 137 mM NaCl, peptide 13 mM) [PN] | Force of adhesion (Geometric Mean) ([3]; 1×PBS, peptide 13 mM) [PN] | Force of adhesion (Geometric Mean) ([3]; MilliQ water, peptide 13 mM) [PN] | reduction of adhesion values by addition of both NaCl and PO4 ([3]; NaCl and PO4 versus MilliQ water) | metabolic activity of cells versus 2D cultures ([2]; cells cultured in nanogels, 2D = cells in absence of peptides) | time cells stay metabolically active in nanogel ([2]; cells grown in nanogels) |
| --- | --- | --- | --- | --- | --- | --- | --- | --- | --- | --- | --- |
|  | CC[C@H](C)[C@H](NC(C)=O)C(=O)N[C@H](C(=O)N[C@@H](CC1CCCCC1)C(=O)N[C@@H](CCCCN)C(=O)N[C@@H](Cc1ccc(O)c(O)c1)C(=O)N[C@@H](CCCCN)C(=O)N[C@@H](Cc1ccc(O)c(O)c1)C(=O)N[C@@H](CCCCN)C(=O)N[C@@H](Cc1ccc(O)c(O)c1)C(N)=O)[C@@H](C)CC [IIZ(KDo)3] (Ac-II[Cha]K[Dopa]K[Dopa]K[Dopa]-NH2) | toxic | reduced cell growth | not biocompatible |  |  |  |  |  |  |  |
|  | Ac-Ile-Ile-Phe-Lys-NH2 (Ac-IIFK-NH2) [alternative peptide used as control, reference compound] |  |  |  | 8.358 | 13.217 | 12.13 | 89.77 | about 80% |  |  |
|  | CC[C@H](C)[C@H](NC(C)=O)C(=O)N[C@H](C(=O)N[C@@H](CC1CCCCC1)C(=O)N[C@@H](CCCCN)C(=O)N[C@@H](Cc1ccc(O)c(O)c1)C(=O)N[C@@H](CCCCN)C(=O)N[C@@H](Cc1ccc(O)c(O)c1)C(N)=O)[C@@H](C)CC [IIZ(KDo)2] (Ac-II[Cha]K[Dopa]K[Dopa]-NH2) | good viability | did not affect cell growth | biocompatible |  |  |  |  |  | consistently comparable to 2D cultures | metabolically active for up to day 21 |
| 20 | Ac-II[Cha]K-NH2 [IIZK, reference compound] |  |  |  | 5.681 | 100.4 | 11.5885 | 75.66 |  |  |  |
